What was measured:
NLRP3 inflammasome = type: cell-based, C57BL/6 mice
[1] = 0.5 h, pH 7.4
[2] = tested on: TAA-induced liver fibrosis; set-up: species or system BALB/c mice; conditions: mouse, in vivo
[3] = 0.5 h, pH 7.4; remark: listed apart in the source
[4] = in vivo; cited from earlier work

CC(=O)OC[C@H]1O[C@@H]([S-])[C@H](OC(C)=O)[C@@H](OC(C)=O)[C@@H]1OC(C)=O.CCP(CC)CC.[Au+] [auranofin]
effect on ATP-induced IL-1β secretion (NLRP3 inflammasome): inhibited ATP-induced IL-1β secretion
percentage remaining after incubation with mouse liver microsomes [1]: 1.5%
efficacy on liver fibrosis compared with 10 mg/kg aurocyanide [2]: similar
percentage remaining after incubation with human liver microsomes [3]: 6.9%
fraction absorbed through the gastrointestinal tract [4]: 15–25%

Reference: PMC9998255 (Archives of Pharmacal Research, 2023)
